According to PMC9738796, “Design of Conjugates Based on Sesquiterpene Lactones with Polyalkoxybenzenes by “Click” Chemistry to Create Potential Anticancer Agents” (Molecules, 2022):
Read-outs that look alike come from different tables or passages of the source.

Tests used:
[1] = tested on: Hek 293 (human embryonic kidneys); test: MTT cell viability, normal Hek 293; format: cell-based; conditions: HEK293, 24 h
Excerpt: (§1) In this study we used human cell culture of tumor origin—SH-SY5Y (neuroblastoma), HeLa (cervical tumor), Hep-2 (larynx carcinoma), A549 (adenocarcinomic human alveolar basal epithelial cells); and normal cell line Hek 293 (human embryonic kidneys)), provided by the Laboratory of Tumor Cell Genetics of the Scientific Research Institute of Carcinogenesis, N.N. Blokhin National Medical Research Center of Oncology, as well as the Institute of Cytology of the Russian Academy of Sciences. While being grown for experiments, cells were cultured at 37 °C in a humidified CO2 atmosphere (5%) in a nutrient medium DMEM (PanEco, Moscow, Russia) and MEM (PanEco, Moscow, Russia), containing fetal bovine serum (10% by volume) (Thermo Fisher Scientific, Paisley, UK), Glutamax (2 mM) (Gibco, Renfrewshire, UK), and penicillin-streptomycin (1% by volume) (PanEco, Moscow, Russia).
(§2) Cell viability was determined by MTT test as described earlier. Cells were seeded in a 96-well plate in the amount of 1 × 10^4 cells/200 µL and cultured at 37 °C in a humidified CO2 atmosphere (5%) in a nutrient medium DMEM (PanEco, Moscow, Russia) and MEM (PanEco, Moscow, Russia). After 24 h of incubation, […] aliquots of test compounds ([…]) dissolved in DMSO were added to the cell cultures, and cells were cultured under the same conditions for 24 h. […] DMSO also was added to the control wells in a volume of 1%.
(§3) After 24 h, […] of MTT (3-(4,5-dimethylthiazol-2-yl)-2,5-diphenyltetrazolium bromide, 5 mg/mL) was added to each well and the plates were additionally incubated for 2 h.
(§4) Using a plate analyzer (Cytation3, BioTek Instruments Inc., Winooski, VT, USA), the optical density was determined at 530 nm. The concentration value causing 50% inhibition of cell population growth (IC50) was determined from dose-dependent curves.

[2] = tested on: A549 (adenocarcinomic human alveolar basal epithelial cells); test: MTT cell viability, A549; format: cell-based; conditions: 24 h
Excerpt: as §1, §2, §3, §4

SH-SY5Y (neuroblastoma) = test: MTT cell viability, SH-SY5Y; format: cell-based; conditions: Homo sapiens, 24 h
Excerpt: as §1, §2, §3, §4

HeLa (cervical tumor) [3] = test: MTT cell viability, HeLa; format: cell-based; conditions: Homo sapiens, 24 h
Excerpt: as §1, §2, §3, §4

Hep-2 (larynx carcinoma) = test: MTT cell viability, Hep-2; format: cell-based; conditions: Homo sapiens, 24 h
Excerpt: as §1, §2, §3, §4

HeLa (cervical tumor) [4] = conditions: HeLa column; cited from earlier work
[5] = tested on: all cell lines (SH-SY5Y, HeLa, Hep-2, A549, Hek 293); test: MTT cytotoxicity, summary over all cell lines; format: cell-based; conditions: Homo sapiens; span over all cell lines
Excerpt: as §1
Cell viability was determined by MTT test as described earlier. Cells were seeded in a 96-well plate in the amount of 1 × 10^4 cells/200 µL and cultured at 37 °C in a humidified CO2 atmosphere (5%) in a nutrient medium DMEM (PanEco, Moscow, Russia) and MEM (PanEco, Moscow, Russia). […]
Using a plate analyzer (Cytation3, BioTek Instruments Inc., Winooski, VT, USA), the optical density was determined at 530 nm. […]

SH-SY5Y cells = test: Glycolysis flux assay (Seahorse ECAR); format: cell-based, human; conditions: for decrease in ECAR: 100 µM, SH-SY5Y, kinetic curves (Figure 3d,e); for glycolytic capacity (ECAR change relative to control): SH-SY5Y (Figure 3c)
Procedure: The ability of compounds to suppress anaerobic glycolysis was studied using the Agilent Seahorse XF96e Analyzer (Seahorse Bioscience, Billerica, MA, USA) by the level of hydrogen proton production in the studied samples on cell lines of neuroblastoma SH-SY5Y [55].
The 30,000 SH-SY5Y cells per well were plated in an XF cell culture microplate (Seahorse Bioscience, Billerica, MA, USA). After plating cells, the microplate was kept overnight in a 37 °C, 5% CO2 incubator. On the following day the medium was aspirated, the cells washed and placed in serum-free, pyruvate-free and glucose-free medium (pH = 7.4). The microplate was kept for 45 min again in a 37° C, 5% CO2 incubator.
When SH-SY5Y cells were analyzed, we followed the procedure described in the Seahorse Glycolysis Stress Test kit. Briefly, initial extracellular acidification rate (ECAR) measurements were taken in the absence of glucose. […] This was followed by an injection of oligomycin from port C so that the final concentration of oligomycin in each well was […]. Lastly, a 25 mM final concentration of 2-deoxyglucose was injected from port D.
Data for each experimental condition derive from values obtained from a minimum of 5 separate wells.

SMILES	IC50 (SH-SY5Y (neuroblastoma))	IC50 (HeLa (cervical tumor) [3])	IC50 (Hep-2 (larynx carcinoma))	IC50 [1]	IC50 [2]	IC50 (HeLa (cervical tumor) [4])	IC50 [5]	decrease in ECAR (SH-SY5Y cells)	glycolysis (ECAR change relative to control) (SH-SY5Y cells; 100 μM, SH-SY5Y (Figure 3b))	glycolytic capacity (ECAR change relative to control) (SH-SY5Y cells; 100 μM)
COc1ccc(COCc2cn(CCNC[C@H]3C(=O)O[C@@H]4C[C@@]5(C)CCC[C@H](C)C5=C[C@@H]43)nn2)cc1 [7b, (3S,3aR,5S,8aR,9aR)-3-(((2-(4-(((4-Methoxybenzyl)oxy)methyl)-1H-1,2,3-triazol-1-yl)ethyl)amino)methyl)-5,8a-dimethyl-3,3a,6,7,8,8a,9,9a-octahydronaphtho [2,3-b]furan-2(5H)-one]	41.7 ± 1.73 µM	55.1 ± 0.94 µM	67.16 ± 0.14 µM	42.3 ± 1.09 µM	47.3 ± 1.52 µM					
C=C1C(=O)O[C@@H]2[C@H]3C(C)=CC[C@@]34O[C@@]4(C)CC[C@@H]12 [Arglabin, arglabin, reference compound]	34 ± 2.48 µM		29.9 ± 0.93 µM	78 ± 2.05 µM		20 µM				
C[C@H]1CCC[C@]2(C)C[C@H]3OC(=O)C(CNCCn4cc(COCc5ccc6c(c5)OCO6)nn4)[C@H]3C=C12 (some centres unmarked) [7a]	33.6 ± 1.27 µM	39 ± 1.27 µM	55.68 ± 0.52 µM	38.9 ± 1.23 µM	29.3 ± 1.37 µM		29 to 55 µM	more than 50%		
COc1ccc(COCc2cn(CCNC[C@H]3C(=O)O[C@@H]4C[C@@]5(C)CCC[C@H](C)C5=C[C@@H]43)nn2)cc1OC [7d, (3S,3aR,5S,8aR,9aR)-3-(((2-(4-(((3,4-Dimethoxybenzyl)oxy)methyl)-1H-1,2,3-triazol-1-yl)ethyl)amino)methyl)-5,8a-dimethyl-3,3a,6,7,8,8a,9,9a-octahydronaphtho [2,3-b]furan-2(5H)-one]	45.2 ± 1.24 µM	81 ± 3.17 µM	91 ± 2.85 µM	35.39 ± 0.29 µM	83.5 ± 1.09 µM					
COc1cccc(COCc2cn(CCNC[C@H]3C(=O)O[C@@H]4C[C@@]5(C)CCC[C@H](C)C5=C[C@@H]43)nn2)c1OC [7c, (3S,3aR,5S,8aR,9aR)-3-(((2-(4-(((2,3-Dimethoxybenzyl)oxy)methyl)-1H-1,2,3-triazol-1-yl)ethyl)amino)methyl)-5,8a-dimethyl-3,3a,6,7,8,8a,9,9a-octahydronaphtho [2,3-b]furan-2(5H)-one]	40 ± 1.32 µM	46.6 ± 0.81 µM	62.6 ± 0.72 µM	46.25 ± 0.22 µM	53.11 ± 0.25 µM					
C=C1CC[C@H]2[C@H](CNCCn3cc(COCc4ccc(OC)c(OC)c4)nn3)C(=O)O[C@@H]2C2C(=C)CCC12 (stereo partly drawn) [6d, (3R,3aS,9bS)-3-(((2-(4-(((3,4-Dimethoxybenzyl)oxy)methyl)-1H-1,2,3-triazol-1-yl)ethyl)amino)methyl)-6,9-dimethylenedecahydroazuleno [4,5-b]furan-2(9bH)-one]	57.8 ± 1.71 µM	> 100 µM	> 100 µM	69.47 ± 0.54 µM	> 100 µM				reaching a minimum	
C=C1CCC2C(CNCCn3cc(COCc4ccc5c(c4)OCO5)nn3)C(=O)OC2C2C(=C)CCC12 [6a, (3R,3aS,9bS)-3-(((2-(4-((Benzo[d][1, 3]dioxol-5-ylmethoxy)methyl)-1H-1,2,3-triazol-1-yl)ethyl)amino)methyl)-6,9-dimethylenedecahydroazuleno [4,5-b]furan-2(9bH)-one]	37.35 ± 0.28 µM	62.4 ± 0.05 µM	88.1 ± 2.66 µM	57 ± 1.24 µM	85.65 ± 0.38 µM			more than 50%		reaching a minimum
C=C1CC[C@H]2[C@H](CNCCn3cc(COCc4ccc(OC)cc4)nn3)C(=O)O[C@@H]2C2C(=C)CCC12 (stereo partly drawn) [6b, (3R,3aS,9bS)-3-(((2-(4-(((4-Methoxybenzyl)oxy)methyl)-1H-1,2,3-triazol-1-yl)ethyl)amino)methyl)-6,9-dimethylenedecahydroazuleno [4,5-b]furan-2(9bH)-one]	36.3 ± 2.38 µM	61.52 ± 0.12 µM	> 100 µM	56.4 ± 1.03 µM	> 100 µM					
C=C1CC[C@H]2[C@H](CNCCn3cc(COCc4cccc(OC)c4OC)nn3)C(=O)O[C@@H]2C2C(=C)CCC12 (stereo partly drawn) [6c, (3R,3aS,9bS)-3-(((2-(4-(((2,3-Dimethoxybenzyl)oxy)methyl)-1H-1,2,3-triazol-1-yl)ethyl)amino)methyl)-6,9-dimethylenedecahydroazuleno [4,5-b]furan-2(9bH)-one]	94.9 ± 1.08 µM	82.4 ± 1.14 µM	> 100 µM	59.8 ± 1.37 µM	> 100 µM					

The next lines start with results.

IC50 (SH-SY5Y (neuroblastoma))	IC50 (HeLa (cervical tumor) [3])	IC50 (Hep-2 (larynx carcinoma))	SMILES	IC50 [1]	IC50 [2]	IC50 (HeLa (cervical tumor) [4])	IC50 [5]	decrease in ECAR (SH-SY5Y cells)	glycolysis (ECAR change relative to control) (SH-SY5Y cells; 100 μM, SH-SY5Y (Figure 3b))	glycolytic capacity (ECAR change relative to control) (SH-SY5Y cells; 100 μM)
60.38 ± 0.39 µM	72.79 ± 0.07 µM	> 100 µM	COc1ccc(Cn2cc(CNCC3C(=O)O[C@@H]4C[C@@]5(C)CCC[C@H](C)C5=C[C@H]34)nn2)cc1 (some centres unmarked) [11b]	49.55 ± 0.33 µM	70.3 ± 1.17 µM					
> 100 µM	88.2 ± 1.27 µM	> 100 µM	COc1cccc(Cn2cc(CNCC3C(=O)O[C@@H]4C[C@@]5(C)CCC[C@H](C)C5=C[C@H]34)nn2)c1OC (some centres unmarked) [11c]	67.91 ± 0.65 µM	> 100 µM					
16.1 ± 0.46 µM	16.6 ± 0.59 µM	26.3 ± 0.38 µM	C=C1CC[C@H]2C(CNCc3cn(Cc4ccc(OC)cc4)nn3)C(=O)O[C@@H]2C2C(=C)CCC12 (some centres unmarked) [10b]	56.65 ± 0.05 µM	25.2 ± 3.44 µM					
56.1 ± 1.06 µM	89.35 ± 0.4 µM	> 100 µM	COc1ccc(Cn2cc(CNCC3C(=O)O[C@@H]4C[C@@]5(C)CCC[C@H](C)C5=C[C@H]34)nn2)cc1OC (some centres unmarked) [11d]	59.6 ± 1.84 µM	91.2 ± 1.54 µM					
21.83 ± 0.02 µM	26.4 ± 2.39 µM	82.2 ± 1.15 µM	C=C1CC[C@H]2C(CNCc3cn(Cc4ccc(OC)c(OC)c4)nn3)C(=O)O[C@@H]2C2C(=C)CCC12 (some centres unmarked) [10d]	> 100 µM	> 100 µM					
89.5 ± 2.57 µM	79.59 ± 0.33 µM	> 100 µM	C=C1CC[C@H]2C(CNCc3cn(Cc4cccc(OC)c4OC)nn3)C(=O)O[C@@H]2C2C(=C)CCC12 (some centres unmarked) [10c]	66.29 ± 0.08 µM	> 100 µM					
19.3 ± 0.57 µM	18 ± 0.32 µM	> 100 µM	C=C1CC[C@H]2C(CNCc3cn(Cc4ccc5c(c4)OCO5)nn3)C(=O)O[C@@H]2C2C(=C)CCC12 (some centres unmarked) [10a]	58.04 ± 0.07 µM	> 100 µM			more than 50%		
71.8 ± 2 µM	88.86 ± 0.21 µM	> 100 µM	C[C@H]1CCC[C@]2(C)C[C@H]3OC(=O)C(CNCc4cn(Cc5ccc6c(c5)OCO6)nn4)[C@H]3C=C12 (some centres unmarked) [11a]	61.43 ± 0.1 µM	95.9 ± 1.5 µM			more than 50%		reaching a minimum
